Assay results published in US20050020542A1, “Method of modulating sodium ion absorption in epithelial cells” (priority 2001, published 2005).

Tests used:
[1] = test system: calcium-activated Cl- channel; test: Perforated patch whole cell recording of Cl- current; type: cell-based, human
Experimental: In FIGS. 4A and 4B, the response to 10 μM INO-E2 is contrasted with the response to ATP.

human CF nasal epithelia = test: Blue Dextran volume transport assay (fluid absorption); type: cell-based; conditions: for inhibition of fluid absorption, dose response: Blue Dextran Assay, 18 hrs apical exposure
Description: In normal human airway epithelia, Na^+ and Cl^− currents (CFTR and Ca^2+-activated Cl^− currents) contribute to airway surface liquid (ASL) fluid volume regulation depending on signaling equilibria. In contrast, in human CF airway epithelia, Na^+ currents through ENaC dominate basal ASL volume regulation accompanied by a relatively minor contribution through Ca^2+-activated Cl^− currents. The combination of enhanced ENaC currents and transient Ca^2+-activated Cl^− currents in CF result in an inadequate hydration of the ASL and reduction of mucociliary clearance. Since INO-E2 reduces Na^+ transport through ENaC, we hypothesized that INO-E2 would have a functional effect, similar to amiloride, and inhibit fluid absorption. To test this hypothesis, we exposed well differentiated monolayer cultures of CF nasal epithelia to an apically applied buffer containing INO-E2 and a known concentration of the non-permeable molecule Blue Dextran (BD). The resulting reduction in the ability of these monolayers to concentrate BD was taken as a functional indicator of INO-E2's involvement in the inhibition of ENaC.
HEPES Modified Ringer's Buffer (HMRB) was used for these assays. HMRB was sterilized by positive pressure filtration through a 0.2 um syringe tip filter (Gelman acrodisc). The BD stock solution was aseptically prepared with sterile buffer (2 mg BD/ml buffer). Compounds to be tested were solubilized in sterile HMRB containing 1 μM BD (final concentration of vehicle is 0.1% (1:1, DMSO+DMSO containing 5% pluronic-F127). […] A standard concentration curve was obtained by determining the optical densities of a serial dilution of 10 μM Blue Dextran in HMRB placed in a Falcon 3027 96-well plate. The optical density of BD in the solution was obtained by analysis at 660 nm in a Packard Spectracount. Standards and samples were analyzed on the same plate. 50 μl volumes were used for all samples and standards. The [BD] of the samples was determined by extrapolation from the standard curve using the Packard I-Smart software. The increase in [BD] from the starting value of 1 μM was taken to be an indication of the magnitude of volume absorption occurring across the monolayer. The rate of absorption was calculated by dividing the change in volume by the duration of the experiment. This value was normalized to a surface area of 1 cm^2, to give μl·cm^2−1·hr^−1. To address evaporative loss, which would appear in the data as artificially high absorptive rates, dummy membranes were constructed by attaching a thin Sylgard sheet to snapwells/transwells with silicon sealant. These dummy membranes were used in parallel with the epithelial monolayers to assess evaporative loss for each experiment.

Which “further increase in whole cell chloride current after INO-E2” value ([1]; ATP contrasted with 10 μM INO-E2) does the source give for Nc1ncnc2c1ncn2[C@@H]1O[C@H](COP(=O)(O)OP(=O)(O)OP(=O)(O)O)[C@@H](O)[C@H]1O [ATP, adenosine triphosphate, reference compound] here?
Its value is “no further increase”.

What does the source list for CCCC(=O)OC1C(OP(=O)(OCOC(=O)CC)OCOC(=O)CC)C(OC(=O)CCC)C(OP(=O)(OCOC(=O)CC)OCOC(=O)CC)C(OP(=O)(OCOC(=O)CC)OCOC(=O)CC)C1OP(=O)(OCOC(=O)CC)OCOC(=O)CC (stereo not shown) [INO-230, 2,6-Di-O-butyryl-myo-inositol 1,3,4,5-tetrakisphosphate octakis(propionoxymethyl) ester]?
inhibition of fluid absorption 42 hrs after exposure (human CF nasal epithelia; 10 μM, 2 hr exposure, measured 42 hrs after): significantly inhibits; change of potency on fluid absorption with repeat administration (human CF nasal epithelia; 2 hours each day for 8 days at 0.1 μM or 1 μM, n=6): enhancement of compound potency; inhibition of fluid absorption, dose response (human CF nasal epithelia): dose dependent inhibition of fluid absorption; relative potency on fluid absorption after pulsed exposure (human CF nasal epithelia; INO-230 vs INO-E2): more potent than INO-E2; duration of effect on fluid secretion following a brief (pulsed) exposure (human CF nasal epithelia; pulsed exposure, FIG. 17): prolonged effects; potency of inhibition of fluid absorption on repeated exposure (human CF nasal epithelia; repeated apical low doses over 96-192 hours, FIG. 17): nanomolar range

With CCCC(=O)OC1C(OC(=O)CCC)C(OP(=O)(OCOC(=O)CC)OCOC(=O)CC)C(OP(=O)(OCOC(=O)CC)OCOC(=O)CC)C(OC(=O)CCC)C1OP(=O)(OCOC(=O)CC)OCOC(=O)CC (stereo not shown) [INO-4981, 1,2,5-tri-O-butyryl-myo-inositol 3,4,6-trisphosphate hexakis (propionoxymethyl) ester] as the compound, how does the “inhibition of fluid absorption, dose response” value (shortened to “inhibition … dose response”) (human CF nasal epithelia) read?
Its value is “dose dependent inhibition of fluid absorption”.

How did the “inhibition … dose response” value (human CF nasal epithelia) turn out when CCCC(=O)OC1C(OC(=O)CCC)C(OP(=O)(OCOC(=O)CC)OCOC(=O)CC)C(OP(=O)(OCOC(=O)CC)OCOC(=O)CC)C(OC(=O)CCC)C1OP(=O)(OCOC(=O)CC)OCOC(=O)CC (stereo not shown) [INO-4982, 2,3,5-tri-O-butyryl-myo-inositol 1,4,6-trisphosphate hexakis (propionoxymethyl) ester] was run?
The value was “dose dependent inhibition of fluid absorption”.

How did the “potency on fluid absorption relative to 100 μM amiloride” value (human CF nasal epithelia; 100 μM) turn out when CCC(=O)OCOP(=O)(OCOC(=O)CC)OC1C2OC3(CC4CCC3(C)C4(C)C)OC2C(OP(=O)(OCOC(=O)CC)OCOC(=O)CC)C(OP(=O)(OCOC(=O)CC)OCOC(=O)CC)C1OP(=O)(OCOC(=O)CC)OCOC(=O)CC (stereo not shown) [INO-4984, 2,3-camphanylidene-myo-inositol 1,4,5,6-tetrakisphosphate octakis (propionoxymethyl) ester] was run?
Its value is “more potent than 100 μM amiloride”.

What about the “inhibition … dose response” value (human CF nasal epithelia) of the same compound?
The value was “dose dependent inhibition of fluid absorption”.

With CCCCCCCCOC1C(OC(=O)CCC)C(OP(=O)(OCOC(=O)CC)OCOC(=O)CC)C(OP(=O)(OCOC(=O)CC)OCOC(=O)CC)C(OP(=O)(OCOC(=O)CC)OCOC(=O)CC)C1OP(=O)(OCOC(=O)CC)OCOC(=O)CC (stereo not shown) [INO-4987, 2-O-butyryl-3-O-octyl-myo-inositol 1,4,5,6-tetrakisphosphate octakis (propionoxymethyl) ester] as the compound, how does the “inhibition … dose response” value (human CF nasal epithelia) read?
Its value is “dose dependent inhibition of fluid absorption”.

How did the “potency on fluid absorption relative to 100 μM amiloride” value (human CF nasal epithelia; 5 uM) turn out when CCCC(=O)OC1C(OP(=O)(OCOC(=O)CC)OCOC(=O)CC)C(OC(=O)CCC)C(OP(=O)(OCOC(=O)CC)OCOC(=O)CC)C(OC(=O)CCC)C1OP(=O)(OCOC(=O)CC)OCOC(=O)CC (stereo not shown) [INO-4992, 2,4,6-tri-O-butyryl-myo-inositol 1,3,5-trisphosphate hexakis (propionoxymethyl) ester] was run?
The value was “nearly as potent as 100 μM amiloride”.

And the “inhibition … dose response” value (human CF nasal epithelia)?
Its value is “dose dependent inhibition of fluid absorption”.

CCC(=O)OCOP(=O)(OCOC(=O)CC)OC1C2OC3(CC4CCC3(C)C4(C)C)OC2C(OP(=O)(OCOC(=O)CC)OCOC(=O)CC)C(OP(=O)(OCOC(=O)CC)OCOC(=O)CC)C1OP(=O)(OCOC(=O)CC)OCOC(=O)CC (stereo not shown) [INO-4996, 1,2-camphanylidene-myo-inositol 3,4,5,6-tetrakisphosphate octakis (propionoxymethyl) ester] was tested. Which “inhibition … dose response” value (human CF nasal epithelia) did it give?
The value was “dose dependent inhibition of fluid absorption”.

What does the source list for CCCC(=O)OC1C(OCCCc2ccccc2)C(OP(=O)(OCOC(=O)CC)OCOC(=O)CC)C(OP(=O)(OCOC(=O)CC)OCOC(=O)CC)C(OP(=O)(OCOC(=O)CC)OCOC(=O)CC)C1OP(=O)(OCOC(=O)CC)OCOC(=O)CC (stereo not shown) [INO-4997, 2-O-butyryl-1-O-(3-phenylpropyl)-myo-inositol 3,4,5,6-tetrakis-phosphate octakis (propionoxymethyl) ester]?
activity on fluid absorption as share of activity of 100 μM amiloride (human CF nasal epithelia; 1 μM): 50%; inhibition of fluid absorption, dose response (human CF nasal epithelia): dose dependent inhibition of fluid absorption

How did the “inhibition … dose response” value (human CF nasal epithelia) turn out when N=C(N)NC(=O)c1nc(Cl)c(N)nc1N [amiloride, reference compound] was run?
Its value is “inhibited fluid absorption measured by the Blue Dextran assay in a dose dependent fashion”.

O=C(O)c1cccnc1Nc1cccc(C(F)(F)F)c1 [niflumic acid, reference compound] was tested. Which “block of INO-E2 mediated whole cell current” value ([1]; 100 μM) did it give?
The value was “completely blocked”.
